# Measured values as given in US7153869B2, “Substituted amino acids as erythropoietin mimetics” (priority 1998, dated 2006).
# Read-outs that look alike come from different tables or passages of the source.
# Target: T1, EBP-Ig (N-terminal 225 amino acids of the human EPO receptor joined to an Ig heavy chain) (Homo sapiens, UniProt P19235)
# T1 construct: Ig heavy chain (fusion partner); made in house; host or cells: NSO cells (secreted into conditioned media)
# T1 sequence (P19235 25-250 limits assumed): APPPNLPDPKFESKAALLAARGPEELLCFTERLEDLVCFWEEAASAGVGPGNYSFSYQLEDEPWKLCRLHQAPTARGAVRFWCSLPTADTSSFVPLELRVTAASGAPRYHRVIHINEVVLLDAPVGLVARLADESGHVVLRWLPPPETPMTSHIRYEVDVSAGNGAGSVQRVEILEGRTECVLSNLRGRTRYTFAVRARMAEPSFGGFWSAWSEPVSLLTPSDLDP
# Assay: Inhibition of [125I]EPO binding to immobilized EBP-Ig (EPO binding protein-Ig), scintillation Flash plate competition assay
# Settings: for IC30 μM (Inhibition of EPO binding to EBP-Ig) / % inh @ 50 μM (Inhibition of EPO binding to EBP-Ig) / IC50: 0.5 nM [125I]EPO; for IC30 μM (Inhibition of EPO binding to EBP-Ig): 0–500 μM test compound; for % inh @ 50 μM (Inhibition of EPO binding to EBP-Ig): 50 μM test compound, average % inhibition; for IC50: read-out: IC50, μM (Inhibition of EPO binding to EBP-Ig), concentration reducing corrected total binding to 50%
# From the text: The interaction of biotin and streptavidin is frequently employed to capture and effectively immobilize reagents useful in assay protocols and has been employed here as a simple method to capture and immobilize EBP-Ig. EBP-Ig is initially randomly modified with an amine reactive derivative of biotin to produce biotinylated-EBP-Ig. Use of streptavidin coated plates allows the capture of the biotinylated EBP-Ig on the surface of a scintillant impregnated coated well (Flash plates, NEN-DuPont). […] The amount of light produced was quantified to estimate the amount of ligand binding. The specific assay format was suitable for the multi-well plate capacity of a Packard TopCount Microplate Scintillation counter.
# Biotinylated EBP-Ig was prepared as follows. EBP-Ig (3 mL, OD280 2.9) was exchanged into 50 mM sodium bicarbonate, pH 8.5 using a Centriprep 10 ultrafiltration device. The final volume of the exchanged protein was 1.2 mL (OD280 2.6, representing about 2 mg total protein). 10 μL of a 4 mg/ml solution of NHS-LC-Biotin (Pierce) was added and the reaction mixture placed on ice in the dark for two hours. Unreacted biotin was removed by exchange of the reaction buffer into PBS in a Centriprep 10 device and the protein reagent aliquoted and stored at −70° C.
# All wells were adjusted to a final DMSO concentration of 5%. […] After all additions were made, the plate was covered with an adhesive top seal and placed in the dark at room temperature overnight. The next day all liquid was aspirated from the wells to limit analyte dependent quench of the signal, and the plates were counted on a Packard TOPCOUNT Microplate Scintillation Counter. […] Corrected total binding (CTB) was calculated as: TB−NSB=CTB. […] Table 1 lists the average % inhibition, and if determined the IC50 and IC30 values for compounds of Formula I, where the compound numbers refer to the compounds in the tables accompanying the preparative examples.
compound,measurement,setting,value
CC(C)(CC(=O)O)CC(=O)NCCCCC(C(=O)NCCCOCCCCOCCCNC(=O)C(CCCCNC(=O)CC(C)(C)CC(=O)O)N(Cc1ccc(OCc2ccccc2)cc1)Cc1ccc(OCc2ccccc2)cc1)N(Cc1ccc(OCc2ccccc2)cc1)Cc1ccc(OCc2ccccc2)cc1 (stereo not drawn) [compound 267],IC30 μM (Inhibition of EPO binding to EBP-Ig),,2 µM
same,EPO/EBP-Ig % inh @ 50 μM,"50 μM compound, Table 13",83%
same,% inh @ 50 μM (Inhibition of EPO binding to EBP-Ig),,83%
same,IC50,,6 µM
"CC(C)(C)OC(=O)CCC(NCC=Cc1cccc(Oc2ccccc2)c1)C(=O)O (stereo not drawn) [cpd 337, N-(3-Phenoxycinnamyl)Glu(O-t-Bu)-OH]",EPO/EBP-Ig % inh @ 50 μM,"50 μM compound, Table 19A",0%
CCCCC(=O)Nc1cccc(CN(Cc2ccc(OCc3ccccc3)cc2)C(CCCCN)C(=O)OC)c1 (stereo not drawn) [compound 116],% inh @ 50 μM (Inhibition of EPO binding to EBP-Ig),,32%
same,EPO/EBP-Ig % inh @ 50 μM,"Table 7, 50 μM",32%
Cc1ccc(Oc2cccc(/C=C/C(=O)N(Cc3cccc(Oc4ccccc4)c3)C(CCCCN)C(=O)O)c2)cc1 (stereo not drawn) [compound 287],EPO/EBP-Ig % inh @ 50 μM,"50 μM compound, Table 15",36%
same,% inh @ 50 μM (Inhibition of EPO binding to EBP-Ig),,36%
"CC(C)(C)OC(=O)CCC(C(=O)NCCOCCOCCNC(=O)C(CCC(=O)OC(C)(C)C)N(Cc1ccc(OCc2ccccc2)cc1)Cc1ccc(OCc2ccccc2)cc1)N(Cc1ccc(OCc2ccccc2)cc1)Cc1ccc(OCc2ccccc2)cc1 (stereo not drawn) [cpd 245, [N,N-bis(4-Benzyloxybenzyl)Glu(O-t-Bu)-NHCH2CH2OCH2]2]",EPO/EBP-Ig % inh @ 50 μM,"Table 11, 50 μM",0%
CC(C)(C)c1ccc(Oc2cccc(/C=C/C(=O)N(Cc3cccc(Oc4ccccc4)c3)C(CCCCN)C(=O)O)c2)cc1 (stereo not drawn) [compound 288],EPO/EBP-Ig % inh @ 50 μM,"50 μM compound, Table 15",27%
O=C(O)CCC(C(=O)NCCOCCOCCNC(=O)C(CCC(=O)O)N(Cc1cccc(NC(=O)c2ccco2)c1)Cc1cccc(Oc2ccccc2)c1)N(Cc1cccc(NC(=O)c2ccco2)c1)Cc1cccc(Oc2ccccc2)c1 (stereo not drawn) [compound 248],IC30 μM (Inhibition of EPO binding to EBP-Ig),,7 µM
same,% inh @ 50 μM (Inhibition of EPO binding to EBP-Ig),,56%
same,EPO/EBP-Ig % inh @ 50 μM,"Table 11, 50 μM",56%
same,IC50,,20 µM
COC(=O)C(CCCCN)N(Cc1ccc(OCc2ccccc2)cc1)Cc1cccc(NC(=O)c2ccncc2)c1 (stereo not drawn) [compound 120],% inh @ 50 μM (Inhibition of EPO binding to EBP-Ig),,35%
same,EPO/EBP-Ig % inh @ 50 μM,"Table 7, 50 μM",35%
"COC(=O)[C@H](CO)NCC=Cc1cccc(Oc2ccccc2)c1 [cpd 346, N-(3-Phenoxycinnamyl)Ser-OMe]",EPO/EBP-Ig % inh @ 50 μM,"50 μM compound, Table 20A",28%
CC(=O)O.COC(=O)[C@H](CO)N(C/C=C/c1cccc(Oc2ccc(Cl)c(Cl)c2)c1)C/C=C/c1cccc(Oc2ccc(Cl)c(Cl)c2)c1 [compound 296],EPO/EBP-Ig % inh @ 50 μM,"50 μM compound, Table 16A",0%
NCCCCC(C(=O)O)N(CC=Cc1cccs1)CC=Cc1cccs1 (stereo not drawn) [cpd 50],EPO/EBP-Ig % inh @ 50 μM,"Table 3, 50 μM",−6%
O=C(O)CCCC(=O)NCCCCC(C(=O)NCCCCCCCCCCCCNC(=O)C(CCCCNC(=O)CCCC(=O)O)N(Cc1ccc(OCc2ccccc2)cc1)Cc1ccc(OCc2ccccc2)cc1)N(Cc1ccc(OCc2ccccc2)cc1)Cc1ccc(OCc2ccccc2)cc1 (stereo not drawn) [compound 269],IC30 μM (Inhibition of EPO binding to EBP-Ig),,8 µM
same,IC50,,85 µM
NC(=O)CCC(C(=O)O)N(CC=Cc1cccs1)CC=Cc1cccs1 (stereo not drawn) [compound 55],EPO/EBP-Ig % inh @ 50 μM,"Table 3, 50 μM",4%
COC(=O)[C@H](COC(C)(C)C)N(C/C=C/c1ccccc1)C/C=C/c1ccccc1 [compound 306],EPO/EBP-Ig % inh @ 50 μM,"50 μM compound, Table 16A",21%
COC(=O)C(CCCCNC(=O)OCc1ccccc1)N(C/C=C/c1ccc2ccccc2c1)C/C=C/c1ccc2ccccc2c1 (stereo not drawn) [compound 175],EPO/EBP-Ig % inh @ 50 μM,"50 μM compound, Table 9",1%
COC(=O)[C@H](CO)NC/C=C/c1ccc(-c2ccccc2)cc1.O=C(O)C(F)(F)F [compound 342],EPO/EBP-Ig % inh @ 50 μM,"50 μM compound, Table 20A",0%
O=C(O)CCC(=O)NCCCCC(C(=O)NCCCCCCCCCCCCNC(=O)C(CCCCNC(=O)CCC(=O)O)N(Cc1ccc(OCc2ccccc2)cc1)Cc1ccc(OCc2ccccc2)cc1)N(Cc1ccc(OCc2ccccc2)cc1)Cc1ccc(OCc2ccccc2)cc1 (stereo not drawn) [compound 270],IC30 μM (Inhibition of EPO binding to EBP-Ig),,7 µM
same,EPO/EBP-Ig % inh @ 50 μM,"50 μM compound, Table 13",56%
same,% inh @ 50 μM (Inhibition of EPO binding to EBP-Ig),,56%
same,IC50,,100 µM
CC(C)(C)OC(=O)CC(C(=O)NCCOCCOCCNC(=O)C(CC(=O)OC(C)(C)C)N(C/C=C/c1cccc(Oc2ccc(C(C)(C)C)cc2)c1)C/C=C/c1cccc(Oc2ccc(C(C)(C)C)cc2)c1)N(C/C=C/c1cccc(Oc2ccc(C(C)(C)C)cc2)c1)C/C=C/c1cccc(Oc2ccc(C(C)(C)C)cc2)c1 (stereo not drawn) [compound 256],EPO/EBP-Ig % inh @ 50 μM,"50 μM compound, Table 12",10%
NCCCCC(C(=O)NCCOCCOCCNC(=O)C(CCCCN)N(Cc1ccc(OCc2ccccc2)cc1)Cc1ccc(OCc2ccccc2)cc1)N(Cc1ccc(OCc2ccccc2)cc1)Cc1ccc(OCc2ccccc2)cc1 (stereo not drawn) [compound 261],IC30 μM (Inhibition of EPO binding to EBP-Ig),,1.5 µM
same,EPO/EBP-Ig % inh @ 50 μM,"50 μM compound, Table 13",51%
same,% inh @ 50 μM (Inhibition of EPO binding to EBP-Ig),,51%
same,IC50,,2 µM
COC(=O)C(CCC(=O)O)N(C/C=C/c1cccs1)C/C=C/c1cccs1 (stereo not drawn) [compound 61],EPO/EBP-Ig % inh @ 50 μM,"Table 3, 50 μM",14%
COC(=O)C(CCC(=O)OC(C)(C)C)N(CC=Cc1cccs1)CC=Cc1cccs1 (stereo not drawn) [compound 59],EPO/EBP-Ig % inh @ 50 μM,"Table 3, 50 μM",26%
COc1cccc(CCNC(=O)C(CCCCN)N(C/C=C/c2ccccc2)C/C=C/c2ccccc2)c1 (stereo not drawn) [compound 222],IC30 μM (Inhibition of EPO binding to EBP-Ig),,5 µM
same,EPO/EBP-Ig % inh @ 50 μM,"50 μM compound, Table 10",56%
same,% inh @ 50 μM (Inhibition of EPO binding to EBP-Ig),,56%
CC(C)(C)OC(=O)NCCCCC(C(=O)O)N(C/C=C/c1ccc([N+](=O)[O-])cc1)C/C=C/c1ccc([N+](=O)[O-])cc1 (stereo not drawn) [compound 179],EPO/EBP-Ig % inh @ 50 μM,"50 μM compound, Table 9",30%
same,% inh @ 50 μM (Inhibition of EPO binding to EBP-Ig),,30%
COc1ccccc1CCNC(=O)C(CCCCN)N(CC=Cc1ccccc1)CC=Cc1ccccc1 (stereo not drawn) [compound 224],IC30 μM (Inhibition of EPO binding to EBP-Ig),,25 µM
same,inhibition at 50 µM,read-out: % inh @ 50 μM (Inhibition of EPO binding to EBP-Ig),51%
same,inhibition at 50 µM,"read-out: EPO/EBP-Ig % inh @ 50 μM, 50 μM compound, Table 10",51%
same,IC50,,50 µM
COC(=O)C(CCC(=O)O)N(C/C=C/c1cccc(Oc2ccc(Cl)c(Cl)c2)c1)C/C=C/c1cccc(Oc2ccc(Cl)c(Cl)c2)c1 (stereo not drawn) [compound 101],% inh @ 50 μM (Inhibition of EPO binding to EBP-Ig),,32%
same,EPO/EBP-Ig % inh @ 50 μM,"Table 6, 50 μM",32%
O=C(NCCCCC(C(=O)OCc1ccccc1)N(CC=Cc1cccs1)CC=Cc1cccs1)OCc1ccccc1 (stereo not drawn) [compound 57],EPO/EBP-Ig % inh @ 50 μM,"Table 3, 50 μM",0%
COc1ccc(CCNC(=O)C(CCCCNC(=O)Nc2ccc(Cl)c(Cl)c2)N(C/C=C/c2ccccc2)C/C=C/c2ccccc2)cc1 (stereo not drawn) [compound 230],EPO/EBP-Ig % inh @ 50 μM,"50 μM compound, Table 10",42%
same,% inh @ 50 μM (Inhibition of EPO binding to EBP-Ig),,42%
CC(C)(C)OC(=O)NCCCCC(C(=O)NCCCCCCCCCCCCNC(=O)C(CCCCNC(=O)OC(C)(C)C)N(Cc1ccc(OCc2ccccc2)cc1)Cc1ccc(OCc2ccccc2)cc1)N(Cc1ccc(OCc2ccccc2)cc1)Cc1ccc(OCc2ccccc2)cc1 (stereo not drawn) [compound 259],EPO/EBP-Ig % inh @ 50 μM,"50 μM compound, Table 13",−13%
"COC(=O)C(CCCCN)N(Cc1ccc(OCc2ccccc2)cc1)Cc1cccc(NC(=O)c2ccco2)c1 (stereo not drawn) [cpd 117, N-(4-Benzyloxybenzyl)-N-(3-((2-furancarbonyl)amino)benzyl)Lys-OMe]",% inh @ 50 μM (Inhibition of EPO binding to EBP-Ig),,34%
same,EPO/EBP-Ig % inh @ 50 μM,"Table 7, 50 μM",34%
COC(=O)[C@H](CCCCNC(=O)OCc1ccccc1)NC/C=C/c1ccc(OC)cc1 [compound 320],EPO/EBP-Ig % inh @ 50 μM,"50 μM compound, Table 18A",17%
O=C(O)CCCC(=O)NCCCCC(C(=O)NCCCOCCOCCOCCCNC(=O)C(CCCCNC(=O)CCCC(=O)O)N(Cc1ccc(OCc2ccccc2)cc1)Cc1ccc(OCc2ccccc2)cc1)N(Cc1ccc(OCc2ccccc2)cc1)Cc1ccc(OCc2ccccc2)cc1 (stereo not drawn) [compound 272],IC30 μM (Inhibition of EPO binding to EBP-Ig),,5 µM
same,IC50,,10 µM
